According to patent US10774080B2, “Pyrimidine compound as JAK kinase inhibitor” (THERAVANCE BIOPHARMA R&D IP, LLC, priority 2017, dated 2020):

Legend:
[1] = Dynamic moisture sorption (DMS); assay type: physicochemical; settings: for total moisture uptake between 5 and 90% RH: 25° C.
Method: Dynamic moisture sorption (DMS) measurement was performed using a VTI atmospheric microbalance, SGA-100 system (VTI Corp., Hialeah, Fla. 33016). A weighed sample was used and the humidity was lowest possible value (close to 0% RH) at the start of the analysis. The DMS analysis consisted of an initial drying step (0% RH) for 120 minutes, followed by two cycles of sorption and desorption with a scan rate of 5% RH/step over the humidity range of 5% RH to 90% RH. The DMS run was performed isothermally at 25° C. The total moisture uptake between 5 and 90% RH was 1.96%.
The DMS analysis consisted of an initial drying step (0% RH) for 120 minutes, followed by two cycles of sorption and desorption with a scan rate of 5% RH/step over the humidity range of 5% RH to 90% RH. The DMS run was performed isothermally at 25° C. The total moisture uptake between 5 and 90% RH was about 0.02%.

[2] = in vitro; assay type: in vitro ADME; settings: human, microsomes, pH 7.4, HLM Clint
Method: Assay 17: Human Liver Microsome Assay The objective of this assay was to assess the metabolic stability of test compounds in an in vitro human liver sub-fraction. Human liver microsomes obtained from Bioreclamation-IVT (Baltimore, Md.) were thawed on ice and diluted into 0.1M potassium phosphate buffer pH 7.4 to yield final incubation protein concentrations of 0.1 mg/mL. […] Incubations were conducted at 37° C. temperature and test aliquots were taken at time points 0, 5, 8, 15, 30 and 45 minutes. […] The resulting samples were injected onto an LC-MS/MS system for analysis. For each incubation, the peak area of the analytes in each t0 aliquot was set to 100% and the peak areas from subsequent time point aliquots were converted to percentage of parent compound remaining relative to t0. The percentage of parent compound remaining was converted to natural log scale and plotted versus time in minutes. A linear regression analysis was performed for the initial decline of the parent disappearance profile and a formula for the best-fit line determined. The slope of the resultant line was normalized to protein concentration in mg/mL protein or number of cells/mL and CLint was calculated as follows for liver microsomes: CLint (μL·min^−1·mg^−1)=(Slope×1000)/[protein,mg/mL]

Compound	hygroscopicity (in words) [1]	total moisture uptake between 5 and 90% RH [1]	microsomal CLint at 0.1 μM [2]
CCS(=O)(=O)N1[C@@H]2CCC[C@H]1C[C@H](N(C)c1nc(CO)c(F)c(Nc3cc(C)[nH]n3)n1)C2 [Form II]	non-hygroscopic	about 0.02%	
Cc1cc(Nc2cc(CO)nc(N(C)[C@@H]3C[C@H]4CC[C@@H](C3)N4CCC#N)n2)n[nH]1 [Compound C-2, 3-((1R,3s,5S)-3-((4-(hydroxymethyl)-6-((5-methyl-1H-pyrazol-3-yl)amino)pyrimidin-2-yl)(methyl)amino)-8-azabicyclo[3.2.1]octan-8-yl)propanenitrile, reference compound]			12 µL/min/mg
CCS(=O)(=O)N1[C@@H]2CCC[C@H]1C[C@H](N(C)c1nc(CO)c(F)c(Nc3cc(C)[nH]n3)n1)C2 [Form I]		1.96%	
CCS(=O)(=O)N1[C@@H]2CCC[C@H]1C[C@H](N(C)c1nc(Nc3cc(C)[nH]n3)cc(C(N)=O)n1)C2 [Compound C-1, 2-(((1R,3s,5S)-9-(ethylsulfonyl)-9-azabicyclo[3.3.1]nonan-3-yl)(methyl)amino)-6-((5-methyl-1H-pyrazol-3-yl)amino)pyrimidine-4-carboxamide, reference compound]			6 µL/min/mg
